Data taken from the NIST ThermoML archive (doi:10.1016/j.jct.2017.06.001).
± gives the expanded uncertainty stated by the source.

Assay: xn = mol fraction of the nth substance listed
Conditions: 293.15 K, 100 kPa, Liquid, Frequency=5 MHz, Pulse-echo method

OCCCCCO [1,5-pentanediol] + O
Conditions | speed of sound [m/s]
x1 = 0.0029 | 1493.7 ± 1.1
x1 = 0.0037 | 1496.8 ± 1.1
x1 = 0.0043 | 1499.2 ± 1.1
x1 = 0.005 | 1501.8 ± 1.1
x1 = 0.0057 | 1504.5 ± 1.1
x1 = 0.0064 | 1506.9 ± 1.1
x1 = 0.0071 | 1509.3 ± 1.1
x1 = 0.0078 | 1511.9 ± 1.1
x1 = 0.0085 | 1514.3 ± 1.2
x1 = 0.0091 | 1516.7 ± 1.2
x1 = 0.0098 | 1519 ± 1.2
x1 = 0.0107 | 1522 ± 1.2
x1 = 0.0113 | 1524.2 ± 1.2
x1 = 0.012 | 1526.6 ± 1.2
x1 = 0.0128 | 1529.1 ± 1.2
x1 = 0.0136 | 1531.6 ± 1.2
x1 = 0.0143 | 1534 ± 1.2
x1 = 0.015 | 1536.2 ± 1.2
x1 = 0.0158 | 1538.5 ± 1.2
x1 = 0.0165 | 1540.7 ± 1.2
x1 = 0.0172 | 1543 ± 1.2
x1 = 0.018 | 1545.3 ± 1.2
x1 = 0.0189 | 1547.8 ± 1.2
x1 = 0.0198 | 1550.5 ± 1.2
x1 = 0.0206 | 1552.8 ± 1.2
x1 = 0.0214 | 1555.3 ± 1.2
x1 = 0.0224 | 1557.8 ± 1.2
x1 = 0.0232 | 1560.2 ± 1.2
x1 = 0.0241 | 1562.7 ± 1.2
x1 = 0.0254 | 1566 ± 1.2
x1 = 0.0263 | 1568.5 ± 1.2
x1 = 0.0276 | 1571.6 ± 1.2
x1 = 0.0285 | 1573.9 ± 1.2
x1 = 0.0294 | 1576.1 ± 1.2
x1 = 0.0302 | 1578.2 ± 1.2
x1 = 0.0314 | 1580.8 ± 1.2
x1 = 0.0323 | 1583.1 ± 1.2
x1 = 0.0333 | 1585.3 ± 1.2
x1 = 0.0343 | 1587.6 ± 1.2
x1 = 0.0355 | 1590.1 ± 1.2
x1 = 0.0368 | 1592.9 ± 1.2
x1 = 0.0383 | 1596.3 ± 1.2
x1 = 0.0398 | 1599.2 ± 1.2
x1 = 0.0408 | 1601.4 ± 1.2
x1 = 0.0418 | 1603.3 ± 1.2
x1 = 0.0435 | 1606.5 ± 1.2
x1 = 0.0451 | 1609.5 ± 1.2
x1 = 0.0472 | 1613.3 ± 1.2
x1 = 0.0491 | 1616.6 ± 1.2
x1 = 0.0506 | 1619.2 ± 1.2
x1 = 0.0528 | 1622.7 ± 1.2
x1 = 0.0552 | 1626.4 ± 1.2
x1 = 0.0569 | 1629 ± 1.2
x1 = 0.0599 | 1633.3 ± 1.2
x1 = 0.0612 | 1635.1 ± 1.2
x1 = 0.0629 | 1637.4 ± 1.2
x1 = 0.0645 | 1639.4 ± 1.2
x1 = 0.0665 | 1641.9 ± 1.2
x1 = 0.0684 | 1644.3 ± 1.2
x1 = 0.0711 | 1647.4 ± 1.2
x1 = 0.0738 | 1650.3 ± 1.2
x1 = 0.077 | 1653.6 ± 1.2
x1 = 0.08 | 1656.5 ± 1.2
x1 = 0.0837 | 1659.9 ± 1.2
x1 = 0.0871 | 1662.8 ± 1.2
x1 = 0.0895 | 1664.7 ± 1.2
x1 = 0.0944 | 1668.3 ± 1.2
x1 = 0.0974 | 1670.4 ± 1.2
x1 = 0.1023 | 1673.5 ± 1.2
x1 = 0.1068 | 1676.1 ± 1.2
x1 = 0.1108 | 1678.1 ± 1.2
x1 = 0.1168 | 1680.9 ± 1.2
x1 = 0.121 | 1682.7 ± 1.2
x1 = 0.1249 | 1684.1 ± 1.2
x1 = 0.1295 | 1685.7 ± 1.2
x1 = 0.1356 | 1687.5 ± 1.2
x1 = 0.1401 | 1688.7 ± 1.3
x1 = 0.1445 | 1689.8 ± 1.3
x1 = 0.1521 | 1691.3 ± 1.3
